{"source": "patent US20230141981A1", "about": "“NOVEL COMPOUNDS AND COMPOSITION FOR TARGETED THERAPY OF KIDNEY-ASSOCIATED CANCERS” (SHANGHAI MICURX PHARMACEUTICALS CO., LTD, priority 2020, published 2023)", "key": {"[1]": {"test": "Mouse PK: axitinib concentration in blood plasma and kidney tissue post-administration", "format": "in vivo", "settings": "oral gavage, single dose 10 mg/kg", "protocol": "Preferential accumulation of compounds provided herein in kidneys (or near the site of a kidney cancer) may be evaluated by pharmacokinetic (PK) tests, such as in a standard rat PK test.\nIn PK studies, the levels (concentration) of a therapeutic drug is determined in key body compartments, such as blood and select organ tissues, is determined over a given time course. […] For therapy of renal cancers, the targeted organ is kidney."}, "Caki-1": {"tested_on": "Caki-1", "test": "In vitro inhibition of cancer cells, CTG assay, 72 h", "format": "cell-based, human", "settings": "Caki-1, 72 h incubation", "from_the_text": "In vitro activity of compounds provided herein may be assessed by standard testing procedures using various cancer cell lines (alongside normal cell comparators), such as described, for example, in ACS Pharmacol. Transl. Sci. 2019, vol. 2, p. 18; J. Med. Chem. 2018, vol. 61, p. 5304; and methods in references cited therein.\nTherein, Caki-1 is a human clear cell renal cell carcinoma (ccRCC) line. The ACTHN cell line was derived from the pleural effusion of a patient with metastatic renal carcinoma. The 786-O cell line is a hypertriploid renal cancer cell carcinoma cell line. Generally, cells were plated into […] microplates and pre-incubated for 24 h. Subsequently, the test compound solutions were added, and cells growth inhibition analyzed with 9-point data plot. After 72 h of the incubation, the number and proportion of the viable cells was determined by CTG assay, and IC50 values calculated."}, "[2]": {"test": "14-days repeat-dose mouse tolerability test", "settings": "in vivo, 18 mg/kg/day, read-out: well-tolerated dose, 14-days repeat-dose", "from_the_text": "In addition the high efficacy against renal cancers, such drug must be well-tolerated."}}, "note": "Bridge positions count the residues as written; N and C are the ends. Square brackets hold non-standard residues; d marks the D form. Peptide text beside a SMILES is read from it. * marks the point of attachment. X1 = CNC(=O)c1ccccc1Sc1ccc2c(/C=C/c3ccccn3)nn(C(=O)N(CCNC(=O)CC[C@H](N)C(=O)O)CCC(=O)*)c2c1; X3 = CNC(=O)c1ccccc1Sc1ccc2c(/C=C/c3ccccn3)nn(C(=O)*)c2c1; Dab = NCC[C@H](N)C(=O)O"}
{"compound": "CNC(=O)c1ccccc1Sc1ccc2c(/C=C/c3ccccn3)n[nH]c2c1", "note": "[Axitinib, N-methyl-2-[[3-[(E)-2-pyridin-2-ylethenyl]-1H-indazol-6-yl]sulfanyl]benzamide]", "values": [{"measurement": "Blood Plasma Conc. (axitinib)", "setting": "[1]; T = 4 h", "result": "T = 4 h: 95.1 ng/mL"}, {"measurement": "Blood Plasma Conc. (axitinib)", "setting": "[1]; T = 6 h", "result": "T = 6 h: 35.4 ng/mL"}]}
{"compound": "CNC(=O)c1ccccc1Sc1ccc2c(/C=C/c3ccccn3)nn(C(=O)N[C@@H](CCN)C(=O)N[C@H](C(=O)N[C@@H](CCN)C(=O)N[C@H]3CCNC(=O)[C@H]([C@@H](C)O)NC(=O)[C@H](CCN)NC(=O)[C@H](CCN)NC(=O)[C@H](CC(C)C)NC(=O)[C@@H](Cc4ccccc4)NC(=O)[C@H](CCN)NC3=O)[C@@H](C)O)c2c1", "note": "[Example 17] (X3-[Dab]T[Dab][Dab][Dab][dF]L[Dab][Dab]T; lactam 4-C)", "values": [{"measurement": "IC50", "setting": "Caki-1", "result": 8.6, "unit": "µM"}]}
{"compound": "CNC(=O)c1ccccc1Sc1ccc2c(/C=C/c3ccccn3)nn(C(=O)N(CCNC(=O)CC[C@H](N)C(=O)O)CCC(=O)N[C@H](C(=O)N[C@@H](CCN)C(=O)N[C@H]3CCNC(=O)[C@H]([C@@H](C)O)NC(=O)[C@H](CCN)NC(=O)[C@H](CCN)NC(=O)[C@H](CC(C)C)NC(=O)[C@@H](Cc4ccccc4)NC(=O)[C@H](CCN)NC3=O)[C@@H](C)O)c2c1", "note": "[Example 29] (X1-T[Dab][Dab][Dab][dF]L[Dab][Dab]T; lactam 3-C; N-terminus assumed)", "values": [{"measurement": "MTD at 336 h", "setting": "[2]", "result": "≥ 18", "unit": "mg/kg/day"}]}
{"compound": "Cc1ccc(Nc2nccc(N(C)c3ccc4c(C)n(C)nc4c3)n2)cc1S(N)(=O)=O", "note": "[Pazopanib, 5-[[4-[(2,3-dimethylindazol-6-yl)-methylamino]pyrimidin-2-yl]amino]-2-methylbenzenesulfonamide]", "values": [{"measurement": "IC50", "setting": "Caki-1; Homo sapiens", "result": 19.4, "unit": "µM"}]}
{"compound": "CCN(CC)CCNC(=O)c1c(C)[nH]c(/C=C2\\C(=O)Nc3ccc(F)cc32)c1C", "note": "[Sunitinib, (Z)—N-(2-(diethylamino)ethyl)-5-((5-fluoro-2-oxoindolin-3-ylidene)methyl)-2,4-dimethyl-1H-pyrrole-3-carboxamide]", "values": [{"measurement": "IC50", "setting": "Caki-1; Homo sapiens", "result": 6.9, "unit": "µM"}]}
